Test results taken from patent US8603990B2, “Grafted macromolecular conjugates of doxorubicin with anticancer activity and method of their preparation” (priority 2006, dated 2013).
Values after ≈ are worked out from the molar mass of the structure shown.

How the values were obtained:
[1] = system: SW620 (human colorectal carcinoma); assay: In vitro cytotoxicity, SW620 line; type: cell-based; conditions: SW-620, SW620 cells, repeated values per sample
Jurkat = assay: In vitro cytotoxicity, Jurkat line; type: cell-based; conditions: Homo sapiens; Jurkat cells; repeated values per sample
cathepsine B = cathepsine B (Homo sapiens, UniProt P07858); assay: Degradation of grafted conjugates by cathepsine B; type: in vitro ADME; conditions: cathepsine B 5.10^−7 mol/l, pH 6, 37° C., 24 hours
Experimental: The degradation experiments were carried in a phosphate buffer (0.1 M phosphate buffer containing 0.05 M NaCl, pH 6) in the presence of cathepsine B or glutathione in the role of degradation agents, i.e. in the environment modeling intracellular environment (cytoplasm, endosome and secondary lysosome). The grafted polymeric conjugates were dissolved in the phosphate buffer in concentration of 50 mg/ml and immediately before the solutions were placed in a thermostat (37° C.) a stock solution of cathepsine B or glutathione was added to the solutions so that the final concentration of these agents in the incubation medium was 5.10^−7 mol/l and 3.10^−3 mol/l for cathepsine and glutathione, respectively. In predetermined intervals aliquot parts (200 μl) were sampled from the incubation solutions. The samples were desalinated in the PD-10 columns and lyophilized. The molecular weight of the degradation products was measured using the Shimadzu SIL-HT liquid chromatograph fitted with a differential refractometer (Shimadzu RID-10A) and multiangle light dispersion detector (DAWN EOS, Wyatt Technology, USA). The analysis was carried out in a Superose™ 6 column (300×10 mm) (Amersham Bioscience). […] The molecular weight and polydispersity of the copolymer was calculated using the Astra software. […]

[2] = system: mouse T cellular lymphoma EL4; conditions: for Mice surviving on the 70th day: end of experiment day 70
Experimental: The in vivo experiments involved a model of mouse T cellular lymphoma EL4, the experimental animals were mice (males) of the B/6 species that were subcutaneously implanted with 10^5 tumor cells on day 0. The conjugates were applied intravenously in a dose of 1×15 mg/kg of DOX equivalent. This single application was carried out on the ninth day after the tumor cells transplantation, i.e. at a time when the tumor was palpable, about approx. 400 mm^3 in size.

[3] = 1×15 mg/kg DOX equivalent i.v. on day 9

Row | Molecule | IC50 [1] [ng/mL] | IC50 (Jurkat) [µg/mL] | Molecular weight of degradation products (cathepsine B) | Anticancer effect [2, 3] | Weight decrease as a sign of toxicity [2, 3] | Mice surviving on the 70th day [2, 3] [%] | Survival: day of animal death or LTS (individual mice) ([2]; B/6 mice, EL 4 10^5 cells s.c. day 0, one i.v. dose 15 mg/kg DOX equivalent on day 9)
1 | COc1cccc2c1C(=O)c1c(O)c3c(c(O)c1C2=O)C[C@@](O)(C(=O)CO)C[C@@H]3O[C@H]1C[C@H](N)[C@H](O)[C@H](C)O1 [Dox, doxorubicin] | 3 (≈ 0.00552 µM) | 0.119 (≈ 0.219 µM) | – | – | – | – | –
2 | poly(HPMA-co-MA-AH-NHNH2-MA-AH-NHN=DOX-co-MA-GFLG-NH—)-graft-[(GFLG)-poly(HPMA-co-MA-AH-NHNH2-co-MA-AH-NHN=DOX)] [Conjugate 1d] | – | – | below the renal filtration limit | very significant anticancer effect | no weight decrease | 88 | –
3 | poly(HPMA-co-MA-AH-NHNH2-co-MA-AH-NHN=DOX-co-MA-AH-SS—)-graft-[(SS)-poly(HPMA-co-MA-AH-NHNH2-MA-AH-NHN=DOX)] [Conjugate 3a] | – | – | – | very significant anticancer effect | – | 100 | LTS
